pIC50: −log10 of the molar value.
Columns and labels:
rhELA2 = molecular target: T1, rhELA2 (Homo sapiens, UniProt P08246); test: Neutrophil elastase (rhELA2) fluorescence inhibition assay; type: biochemical; settings: rhELA2 activated with DPPI; 30 min preincubation, 1 hr with substrate, fluorescence 360 nm/450 nm
T1 sequence (P08246 30-267): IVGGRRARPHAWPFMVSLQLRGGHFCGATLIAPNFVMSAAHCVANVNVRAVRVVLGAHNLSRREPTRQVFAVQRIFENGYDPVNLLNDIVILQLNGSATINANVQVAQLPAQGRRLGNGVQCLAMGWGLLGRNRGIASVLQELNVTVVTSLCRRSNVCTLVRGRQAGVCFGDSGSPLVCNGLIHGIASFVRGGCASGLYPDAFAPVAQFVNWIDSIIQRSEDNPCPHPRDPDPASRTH
Procedure: Compound preparation: All compounds were dissolved in DMSO at a concentration of 10 mM, and stored at −20° C.
A 1× assay buffer was prepared. […] 1 μL of the serially diluted compound and 65.67 μL of the assay buffer were added into a plate, to obtain 3× working solutions of the positive compound and the test compounds (the final concentration in DMSO was 1.5%). The plate was sealed with a sealing film and shaken on an oscillator for 15 min.
A 1× activation buffer was prepared. rhELA2 was diluted in the activation buffer containing DPPI and incubated at 37° C. for 2 hrs to activate rhELA2. 5 μl of the 3× diluted working solutions of the compound was added to a 384-well plate. rhELA2 was diluted with the 1× assay buffer, to obtain a 3× working solution of rhELA2. 5 μl of the 3× working solution of rhELA2 was added to each well of the 384-well plate. The plate was sealed and incubated for 30 min at room temperature in the dark.
A 3× substrate solution was prepared in the 1× assay buffer. 5 μl of the 3× working solution of the substrate was added into the 384-well plate. The 384-well plate was centrifuged at 1000 rpm for 1 min, and incubated for 1 hr at room temperature in the dark. The fluorescence value FLU at 360 nm/450 nm was read on a plate reader.
The inhibition rate % was calculated. Inhibition rate=(1−(FLU of the compound−FLU of the positive well)/(FLU of the reference well−FLU of the positive well)). FLU of the reference well is that of a well with only the enzyme and no the inhibitor, and FLU of the positive well is that of a well with the enzyme and 3000 nm Sivelestat-2. Then the IC50 value was calculated by the formula Y=Bottom+(Top−Bottom)/(1+10^((LogIC50−X)*HillSlope)) using Graphpad 8.0 software.

[1] = tested on: mouse model of LPS-induced acute lung injury; test: Animal Test 1: mouse model of LPS-induced acute lung injury; type: in vivo, ICR mice; settings: for Content of inflammatory factor IL-1β (Mean ± SD) / Content of inflammatory factor TNF-α (Mean ± SD): left lung homogenate supernatant, 24 h after LPS, i.v. 25 mg/kg at 0.5 h, 4 h and 12 h, total 75 mg/kg
Procedure: Test animals: ICR mice, SPF grade, male, weight at the time of administration: 25-28 g.
Animal grouping: 4 groups, each group having 10 animals.
Establishment of mouse model of LPS-induced acute lung injury: The mice were anesthetized by intramuscular injection of Zoletil®50 (0.05 mL/mouse). Then the mice were fixed in a supine position, the cervical trachea was isolated, and lipopolysaccharide (LPS) (1 mg/mL, 35 μL/mouse) was sprayed by a high-pressure atomizing nozzle. The neck skin was sutured, and disinfected with iodophor.
The dosage at each administration was 25 mg/kg, and the total daily dosage was 75 mg/kg.
24 h after LPS was sprayed into the trachea of mice, the mice were sacrificed, and the trachea was isolated and intubated. The left lung lobe was ligated. The lung lavage was carried out with 0.5 mL normal saline (containing 1% serum and 2 U/mL heparin), and then the process was repeated two times. The lavage fluids of the 3 times were mixed and stood on ice for later use. The ligated left lung lobe was removed from the animal Nos. 1-8 in the blank control group, the model group, the test group and the positive control group respectively, weighed, added with 0.9% NaCl at a ratio of 1:6, homogenized at 4° C. and centrifuged at 10000 rpm for 10 min. The supernatant was collected and the contents of inflammatory factors IL-1B and TNF-α were determined.

[2] = tested on: rat model of hydrochloric acid-induced acute lung injury; test: Animal Test 2: rat model of hydrochloric acid-induced acute lung injury; type: in vivo, rats
Procedure: Animal grouping: 4 groups, each group having 8 animals.
Establishment of rat model of hydrochloric acid-induced acute lung injury: 0.1 N HCL was sprayed into the trachea of rats at a dosage of 0.1 mL/rat.
Both groups were administered twice by tail vein injection, immediately after the model establishment and again 2.5 hrs after the model establishment.
The rats were sacrificed 5 h after the model establishment. Alveolar lavage was performed. The inflammatory cells, protein exudation, pulmonary hemorrhage and NE enzyme activity in the lavage fluid were measured.

[3] = alveolar lavage fluid 5 h after model establishment, tail vein injection twice, total 120 mg/kg
[4] = alveolar lavage fluid 5 h after model establishment, tail vein injection twice, total 30 mg/kg

CC(C)(C)C(=O)Oc1ccc(S(=O)(=O)Nc2ccccc2C(=O)N[C@H](CF)C(=O)O)cc1 [Compound 19]
pIC50 (rhELA2): 8.65

COC[C@@H](NC(=O)c1cc(C#N)ccc1NS(=O)(=O)c1ccc(OC(=O)C(C)(C)C)cc1)C(=O)O [Compound 24]
pIC50 (rhELA2): 8.82

C[C@@H](NC(=O)c1ccccc1NS(=O)(=O)c1ccc(OC(=O)C(C)(C)C)c(F)c1)C(=O)O [Compound 23]
pIC50 (rhELA2): 8.43

CC(C)(C)C(=O)Oc1ccc(S(=O)(=O)Nc2ccc(-c3cnoc3)cc2C(=O)NCC(=O)O)cc1 [Compound 11]
pIC50 (rhELA2): 7.57

COc1ccc(NS(=O)(=O)c2ccc(OC(=O)C(C)(C)C)cc2)c(C(=O)NCC(=O)O)c1 [Compound 17]
pIC50 (rhELA2): 7.81

C[C@@H](NC(=O)c1cc(C#N)ccc1NS(=O)(=O)c1ccc(OC(=O)C(C)(C)C)cc1)C(=O)O [Compound 22]
pIC50 (rhELA2): 8.66

CC(C)(C)C(=O)Oc1ccc(S(=O)(=O)Nc2ccc(-n3ccnc3)cc2C(=O)NCC(=O)O)cc1 [Compound 3]
pIC50 (rhELA2): 7.63

COC[C@@H](NC(=O)c1ccccc1NS(=O)(=O)c1ccc(OC(=O)C(C)(C)C)cc1)C(=O)O [Compound 20]
pIC50 (rhELA2): 8.61
inhibitory effects on inflammatory factors IL-1B and TNF-α, compared with Sivelestat sodium ([1]; both 75 mg/kg total, i.v.): significantly better than those of Sivelestat sodium
Content of inflammatory factor IL-1β (Mean ± SD) [1]: 784 ± 159 pg/mL
Content of inflammatory factor TNF-α (Mean ± SD) [1]: 442 ± 118 pg/mL
improvement of pulmonary hemorrhage, reduction of protein exudation and white blood cell count in alveolar lavage fluid, compared with Sivelestat sodium ([2]; Compound 20 120 mg/kg vs Sivelestat sodium 30 mg/kg): more obviously compared with Sivelestat sodium
Protein content in alveolar lavage fluid [2, 3]: 0.30 ± 0.05 mg/mL
Pulmonary hemorrhage (IOD, absorbance at 412 nm) [2, 3]: 0.20 ± 0.03
White blood cell count (WBC, 1 × 10^6 cell/mL) [2, 3]: 0.28 ± 0.10 ** 1 × 10^6 cell/mL

Cn1cc(-c2ccc(NS(=O)(=O)c3ccc(OC(=O)C(C)(C)C)cc3)c(C(=O)NCC(=O)O)c2)cn1 [Compound 2]
pIC50 (rhELA2): 7.52

COC[C@H](NC(=O)c1ccccc1NS(=O)(=O)c1ccc(OC(=O)C(C)(C)C)cc1)C(=O)O [Compound 26]
pIC50 (rhELA2): 8.07

[2H]C([2H])([2H])OC[C@@H](NC(=O)c1ccccc1NS(=O)(=O)c1ccc(OC(=O)C(C)(C)C)cc1)C(=O)O [Compound 25, O-(methyl-d3)-N-(2-((4-(pivaloyloxy)phenyl)sulfonamido)benzoyl)-D-serine]
pIC50 (rhELA2): 8.60

Cn1nccc1-c1ccc(NS(=O)(=O)c2ccc(OC(=O)C(C)(C)C)cc2)c(C(=O)NCC(=O)O)c1 [Compound 1, (5-(1-methyl-1H-pyrazol-5-yl)-2-((4-(pivaloyloxy)phenyl)sulfonamido)benzoyl)glycine]
pIC50 (rhELA2): 7.69

CC(C)(C)C(=O)Oc1ccc(S(=O)(=O)Nc2ccccc2C(=O)NCC(=O)O)cc1 [Sivelestat sodium, reference compound]
Content of inflammatory factor IL-1β (Mean ± SD) [1]: 1048 ± 384 ^ pg/mL
Content of inflammatory factor TNF-α (Mean ± SD) [1]: 552 ± 77 pg/mL
Protein content in alveolar lavage fluid (mg/mL) [2, 4]: 0.35 ± 0.07 **^ mg/mL
Pulmonary hemorrhage (IOD, absorbance at 412 nm) [2, 4]: 0.25 ± 0.10
White blood cell count (WBC, 1 × 10^6 cell/mL) [2, 4]: 0.42 ± 0.11 1 × 10^6 cell/mL

CC(C)(C)C(=O)Oc1ccc(S(=O)(=O)Nc2ccccc2C(=O)NCP(=O)(O)O)cc1 [Compound 12, ((2-((4-(pivaloyloxy)phenyl)sulfonamido)benzamido)methyl)phosphonic acid]
pIC50 (rhELA2): 8.24

CC(C)(C)C(=O)Oc1ccc(S(=O)(=O)Nc2ccccc2C(=O)NCCS(=O)(=O)O)cc1 [Compound 13, 2-(2-((4-(pivaloyloxy)phenyl)sulfonamido)benzamido) ethan-1-sulfonic acid]
pIC50 (rhELA2): 8.37

C[C@@H](NC(=O)c1cc(F)ccc1NS(=O)(=O)c1ccc(OC(=O)C(C)(C)C)cc1)C(=O)O [Compound 21]
pIC50 (rhELA2): 8.65

CSCC(NC(=O)c1ccccc1NS(=O)(=O)c1ccc(OC(=O)C(C)(C)C)cc1)C(=O)O (centres unmarked) [Compound 27]
pIC50 (rhELA2): 6.88

CC(C)(C)C(=O)Oc1ccc(S(=O)(=O)N[C@@H]2CCC(F)(F)C[C@@H]2C(=O)NCC(=O)O)cc1 [Compound 6]
pIC50 (rhELA2): 7.48
